The test system of test [1] is patient with ovarian cancer stage IIIc. The experiment in a line: CA-125 during prior chemotherapy, case history. In kind it is in vivo, human. Further details: unit not given here.
Test [2] concerns human patients with malignant and non-malignant pathogenic cell diseases. Type of test: in vivo. To be noted: the other 8 patients who developed GVHD; starting with 2 mg/kg.
Test [3] concerns cultured erythroid colonies. The test is described as follows: β-globin gene mutation assay on cultured erythroid colonies +/- Epo. Type of test: cell-based, human. To be noted: in the presence of Epo; 7% without Epo. The procedure: To clarify the unusual clinical picture of this patient, a β-globin gene mutation assay was performed on cultured erythroid colonies, +/− erythropoietin (Epo). […] Donor cells without Epo amounted to 7%, similar to their percentage in peripheral blood lymphocytes and nucleated BMC, rising to 16% in the presence of Epo.

Where “and” joins values, the source holds several entries; their conditions need not be identical. Equal entries are not always repeated.

On to `CC(=O)O[C@H]1C(=O)[C@@]2(C)[C@H]([C@H](OC(=O)c3ccccc3)[C@]3(O)C[C@H](OC(=O)[C@H](O)[C@@H](NC(=O)c4ccccc4)c4ccccc4)C(C)=C1C3(C)C)[C@]1(OC(C)=O)CO[C@@H]1C[C@@H]2O` [Taxol], for which the CA-125 is recorded as 27 in test [1] (175 mg/m^2, after 3 cycles, from 600); approximately 22 in test [1] (after 10 cycles); 152 in test [1] (total of 28 courses). With `N.N.[Cl][Pt][Cl]` [cisplatinum], in test [1] (several courses 20 mg/d x3d q3w), the CA-125 was 328 and 439.6. On to `C[C@]12C=CC(=O)C=C1CC[C@@H]1[C@@H]2C(=O)C[C@@]2(C)[C@H]1CC[C@]2(O)C(=O)CO` [prednisone], for which the “response of GVHD to treatment” value in test [2] is “responded”.

Turning to erythropoietin [Epo], the Donor cells in test [3] stood at 16%.

The values are drawn from patent publication US6544787B1, “Non-myeloablative/lymphoablative conditioning regimen to induce patient anti-donor unresponsiveness in stem cell transplantation” (Hadash Medical Research Services and Development Ltd., priority 1996, dated 2003).
